# Data published in EP0859607B1, “GUANIDINO PROTEASE INHIBITORS” (3-DIMENSIONAL PHARMACEUTICALS, INC., priority 1995, dated 1997).
# pKi: −log10 of the molar value. Where a name gives a salt, the structure may show the parent alone.
# How the values were obtained:
# Assay type in all cases: biochemical
# bovine α-chymotrypsin = molecular target: T1, bovine α-chymotrypsin (Bos taurus, UniProt P00766); experiment: In vitro inhibition of purified enzymes, Ki determination: chymotrypsin; details: Enzyme: Chymotrypsin; substrate Suc-Ala-Ala-Pro-Phe-pNA 14 µM; pH 7.5, 37°C
# T1 construct: Purified bovine α-chymotrypsin was diluted into assay buffer; purchased Sigma
# Description: (§1) Reagents: All buffer salts were obtained from Sigma Chemical Company (St. Louis, MO), and were of the highest purity available. The enzyme substrates, N-benzoyl-Phe-Val-Arg-p-nitroanilide (Sigma B7632), N-benzoyl-Ile-Glu-Gly-Arg-p-nitroanilide (Sigma B2291), N-p-tosyl-Gly-Pro-Lys-p-nitroanilide (Sigma T6140), and N-succinyl-Ala-Ala-Pro-Phe-p-nitroanilide (Sigma S7388) were all obtained from Sigma.
# (§2) Human α-thrombin. human factor Xa, and human plasmin were obtained from Enzyme Research Laboratories (South Bend, Indiana). Bovine α-chymotrypsin and bovine trypsin were obtained from Sigma.
# (§3) Ki Determinations: All assays are based on the ability of the test compound to inhibit the enzyme-catalyzed hydrolysis of a peptide p-nitroanilide substrate. In a typical Ki determination, substrate is prepared in DMSO, and diluted into an assay buffer consisting of 50 mM HEPES, 200 mM NaCI, pH 7.5. The final concentration for each of the substrates is listed below. In general, substrate concentrations are lower than the experimentally determined value for Km. Test compounds are prepared as a 0.16 mg/mL solution in DMSO. Dilutions are prepared in DMSO yielding 8 final concentrations encompassing a 200-fold concentration range. […]
# Chymotrypsin: Chymotrypsin activity was assessed as the ability to hydrolyze the substrate Suc-Ala-Ala-Pro-Phe-pNA. […]
# human α-thrombin = molecular target: T2, human α-thrombin (Homo sapiens, UniProt P00734); experiment: In vitro inhibition of purified enzymes, Ki determination: thrombin; details: Enzyme: Thrombin; substrate Suc-Ala-Ala-Pro-Arg-pNA 20 µM; pH 7.5, 37°C
# T2 construct: Purified human α-thrombin was diluted into assay buffer; purchased Enzyme Research Laboratories (South Bend, Indiana)
# Description: as §1, §2
# Ki Determinations: All assays are based on the ability of the test compound to inhibit the enzyme-catalyzed hydrolysis of a peptide p-nitroanilide substrate. […] The final concentration for each of the substrates is listed below. In general, substrate concentrations are lower than the experimentally determined value for Km. Test compounds are prepared as a 0.16 mg/mL solution in DMSO. Dilutions are prepared in DMSO yielding 8 final concentrations encompassing a 200-fold concentration range. Enzyme solutions are prepared at the concentrations listed below in assay buffer.
# Data corresponding to less than 10% of the total substrate hydrolysis were used in the calculations. The ratio of the velocity (rate of the change in absorbance as a function of time) for a sample containing no inhibitor is divided by the velocity of a sample containing inhibitor, and is plotted as a function of inhibitor concentration. The data are fit to a linear regression, and the value of the slope of the line calculated. The inverse of the slope is the experimentally determined Ki value.
# Thrombin: Thrombin activity was assessed as the ability to hydrolyze the substrate Suc-Ala-Ala-Pro-Arg-pNA. […] Final DMSO concentration was 0.3%. […] Final reagent concentrations were: [thrombin] = 0.5 nM, [Suc-Ala-Ala-Pro-Arg-pNA] = 20 µM.
# human Factor Xa = molecular target: T3, human Factor Xa (Homo sapiens, UniProt P00742); experiment: In vitro inhibition of purified enzymes, Ki determination: factor Xa; details: Enzyme: Factor Xa; substrate Bz-Ile-Glu-Gly-Arg-pNA 51 µM; pH 7.5, 37°C
# T3 construct: purchased Enzyme Research Laboratories (South Bend, Indiana)
# T3 sequence (P00742 235-488 limits assumed): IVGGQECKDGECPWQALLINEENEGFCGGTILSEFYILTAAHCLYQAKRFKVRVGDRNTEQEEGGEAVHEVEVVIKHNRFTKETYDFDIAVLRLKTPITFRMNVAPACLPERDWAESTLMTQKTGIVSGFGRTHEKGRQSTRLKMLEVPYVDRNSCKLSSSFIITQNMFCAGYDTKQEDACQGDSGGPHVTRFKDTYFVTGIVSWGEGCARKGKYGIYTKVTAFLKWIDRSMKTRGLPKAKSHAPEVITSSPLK
# T3 sequence (P00742 41-179 partner limits assumed): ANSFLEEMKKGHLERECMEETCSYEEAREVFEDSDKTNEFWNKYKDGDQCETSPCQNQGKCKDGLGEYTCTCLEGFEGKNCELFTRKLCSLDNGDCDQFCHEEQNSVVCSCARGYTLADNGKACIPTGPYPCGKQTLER
# Description: as §1, §2, §3
# Factor Xa: Factor Xa activity was assessed as the ability to hydrolyze the substrate Bz-Ile-Glu-Gly-Arg-pNA. […]
# human plasmin = molecular target: T4, human plasmin (Homo sapiens, UniProt P00747); experiment: In vitro inhibition of purified enzymes, Ki determination: plasmin; details: Enzyme: Plasmin; substrate Tos-Gly-Pro-Lys-pNA 22 µM; pH 7.5, 37°C
# T4 construct: Purified human plasmin was diluted into assay buffer; purchased Enzyme Research Laboratories (South Bend, Indiana)
# T4 sequence (P00747 581-810 limits assumed): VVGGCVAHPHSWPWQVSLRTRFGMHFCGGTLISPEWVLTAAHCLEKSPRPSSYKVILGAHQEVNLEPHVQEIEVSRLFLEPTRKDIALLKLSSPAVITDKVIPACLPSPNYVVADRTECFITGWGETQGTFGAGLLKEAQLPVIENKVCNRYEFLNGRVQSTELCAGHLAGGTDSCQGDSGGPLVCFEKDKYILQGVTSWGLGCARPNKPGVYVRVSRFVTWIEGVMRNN
# T4 sequence (P00747 97-580 partner limits assumed): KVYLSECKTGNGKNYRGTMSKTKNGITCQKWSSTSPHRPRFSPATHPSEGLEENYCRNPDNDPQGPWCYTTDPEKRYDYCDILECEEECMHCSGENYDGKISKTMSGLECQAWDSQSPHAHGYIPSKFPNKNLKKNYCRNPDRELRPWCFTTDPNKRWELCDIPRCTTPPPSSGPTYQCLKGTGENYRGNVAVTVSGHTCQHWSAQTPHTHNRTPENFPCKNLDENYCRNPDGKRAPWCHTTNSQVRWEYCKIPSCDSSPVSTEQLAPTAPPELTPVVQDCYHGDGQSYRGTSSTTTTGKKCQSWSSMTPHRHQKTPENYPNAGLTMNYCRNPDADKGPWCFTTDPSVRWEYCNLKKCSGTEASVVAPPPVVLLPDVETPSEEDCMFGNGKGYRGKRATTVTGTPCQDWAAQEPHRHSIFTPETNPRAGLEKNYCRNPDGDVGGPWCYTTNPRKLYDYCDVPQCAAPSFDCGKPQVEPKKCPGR
# Description: as §1, §2
# as §3, with “range. Enzyme solutions are prepared at the concentrations listed below in assay buffer.” for “range.”
# Plasmin: Plasmin activity was assessed as the ability to hydrolyze the substrate Tos-Gly-Pro-Lys-pNA. […]
# bovine trypsin = molecular target: T5, bovine trypsin (Bos taurus, UniProt P00760); experiment: In vitro inhibition of purified enzymes, Ki determination: trypsin; details: Enzyme: Trypsin; substrate Bz-Phe-Val-Arg-pNA 14 µM; pH 7.5, 37°C
# T5 construct: Purified bovine trypsin was diluted into assay buffer; purchased Sigma
# T5 sequence (P00760 24-246): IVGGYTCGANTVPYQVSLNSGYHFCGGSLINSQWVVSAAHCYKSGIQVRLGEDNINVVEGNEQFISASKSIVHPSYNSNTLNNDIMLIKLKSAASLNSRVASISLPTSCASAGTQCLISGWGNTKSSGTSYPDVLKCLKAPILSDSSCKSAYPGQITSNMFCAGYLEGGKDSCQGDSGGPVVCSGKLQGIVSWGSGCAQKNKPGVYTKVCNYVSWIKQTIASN
# Description: as §1, §2
# as §3, with “range. Enzyme solutions are prepared at the concentrations listed below in assay buffer.” for “range.”
# Trypsin: Trypsin activity was assessed as the ability to hydrolyze the substrate Bz-Phe-Val-Arg-pNA. […]
Molecule,pKi (human α-thrombin),further results
"N=C(N)N1CCC(COc2cc(OS(=O)(=O)c3ccccc3Cl)ccc2Cc2ccccc2)CC1 [Example 12, 2-Chlorobenzenesulfonic acid 3-[[1-aminoiminomethyl)piperidin-4-yl]methoxy]-4-benzylphenyl ester acetic acid salt]",–,pKi (bovine α-chymotrypsin): 4.90
2-Chlorobenzenesulfonic acid 3-[[1-(aminoiminomethyl)piperidin-3-yl]methoxy]-5-methylphenyl ester [Example 4],–,pKi (human Factor Xa): 4.24
2-Chlorobenzenesulfonic acid 3-[[1-(aminoiminomethyl)piperidin-4-yl]methoxy]-5-hydroxymethylphenylester [Example 44],5.16,–
"N=C(N)N1CCN(CCOc2cccc(OS(=O)(=O)c3ccccc3Cl)c2)CC1 [Example 5, 2-Chlorobenzenesulfonic acid 3-[2-[1-(aminoiminomelhyl)piperazin-4-yl]ethoxy]phenyl ester diacetic acid salt]",–,pKi (human plasmin): 4.53
Benzenesulfonic acid 3-[[1-(aminoiminomethyl)piperidin-4-yl]methoxy]-5-methylphenyl ester acetic acid salt [Example 17],7.44,–
"N=C(N)N1CCC(CNc2cccc(N(Cc3ccccc3)S(=O)(=O)c3ccccc3)c2)CC1 [Example 11, N-benzyl-N-[[3-(1-aminoiminomethyl)-piperidin-4-ylmethylamino]phenyl]benzenesulfonamide]",–,pKi (bovine trypsin): 5.28
2-Chlorobenzenesulfonic acid 3-[2-[1-(aminoiminomethyl)piperazin-4-yl]ethoxy]-5-methylphenyl ester diacetic acid salt [Example 6],6.48,–

# The next lines start with results.
pKi (human α-thrombin),Molecule,further results
7.68,"2,3-Dichlorobenzenesulfonic acid 3-[[1-(aminoiminomethyl)piperidin-4-yl]methoxy]-5-methylphenyl ester hydrochloride [Example 42]",–
7.47,3-Amino-2-chlorobenzenesulfonic acid 3-[[1-(aminoiminomethyl)piperidin-4-yl]methoxy]-5-methylphenyl ester dihydrochloride [Example 33],–
6.60,2-Chlorobenzenesulfonic acid 3-[[1-(aminoiminomethyl)piperidin-4-yl]methoxy]phenyl ester [Example 1],–
7.72,2-Trifluoromethylbenzenesulfonic acid 3-[[1-(aminoiminomethyl)piperidin-4-yl]methoxy]-5-methylphenyl ester acetic acid salt [Example 38],–
8.10,"2-Chlorobenzenesulfonic acid, 3-[[1-(aminoiminomethyl)piperidin-4-yl]methoxy]-5-methylphenyl ester [Example 3]",–
7.40,2-Chlorobenzenesulfonic acid 3-[[1-(aminoiminomethyl)piperidin-4-yl]methoxy]-5-chlorophenyl ester hydrochloride [Example 24],–
